Laboratory results as given in patent US20230312578A1, “6H-INDOLO[2,3-B]QUINOXALINE DERIVATIVES USEFUL IN THERAPY” (Vironova Medical AB, priority 2020, published 2023).
Like-named read-outs stand apart in the source and are kept apart here.

Experiments:
Format in all cases: cell-based
CCRF-CEM = experiment: Human tumor cell line growth assay (SRB); settings: Leukemia, 48 h; for CC50: read-out: LC50 (the source's name)
HL-60(TB) = experiment: Human tumor cell line growth assay (SRB); settings: Leukemia, 48 h; for CC50: read-out: LC50 (the source's name)
[1] = Human tumor cell line growth assay (SRB); settings: human, A549/ATCC cells (NSCLC), read-out: LC50
A549/ATCC = experiment: Human tumor cell line growth assay (SRB); settings: Homo sapiens, NSCLC, 48 h
[2] = Human tumor cell line growth assay (SRB); settings: human, EKVX cells (NSCLC), read-out: LC50
EKVX = experiment: Human tumor cell line growth assay (SRB); settings: Homo sapiens, NSCLC, 48 h
[3] = Human tumor cell line growth assay (SRB); settings: human, HOP-62 cells (NSCLC), HOP-62, 48 h, read-out: LC50
HOP-62 = experiment: Human tumor cell line growth assay (SRB); settings: Homo sapiens; NSCLC, HOP-62, 48 h
[4] = Human tumor cell line growth assay (SRB); settings: human, NCI-H226 cells (NSCLC), NCI-H226, 48 h, read-out: LC50
NCI-H226 = experiment: Human tumor cell line growth assay (SRB); settings: Homo sapiens; NSCLC, NCI-H226, 48 h
[5] = Human tumor cell line growth assay (SRB); settings: human, NCI-H23 cells (NSCLC), NCI-H23, 48 h, read-out: LC50
NCI-H23 = experiment: Human tumor cell line growth assay (SRB); settings: Homo sapiens; NSCLC, NCI-H23, 48 h
[6] = Human tumor cell line growth assay (SRB); settings: human, HCT-116 cells (colon), HCT-116, 48 h, read-out: LC50
HCT-116 = experiment: Human tumor cell line growth assay (SRB); settings: Homo sapiens; Colon, HCT-116, 48 h
[7] = Human tumor cell line growth assay (SRB); settings: human, SW-620 cells (colon), SW-620, 48 h
SW-620 = experiment: Human tumor cell line growth assay (SRB); settings: Homo sapiens; Colon, SW-620, 48 h
[8] = Human tumor cell line growth assay (SRB); settings: human, SNB-19 cells (CNS), SNB-19, 48 h, read-out: LC50
SNB-19 = experiment: Human tumor cell line growth assay (SRB); settings: Homo sapiens; CNS, SNB-19, 48 h
[9] = Human tumor cell line growth assay (SRB); settings: human, SNB-75 cells (CNS), SNB-75, 48 h
SNB-75 = experiment: Human tumor cell line growth assay (SRB); settings: Homo sapiens; CNS, SNB-75, 48 h
[10] = Human tumor cell line growth assay (SRB); settings: human, LOX IMVI cells (melanoma), read-out: LC50
LOX IMVI = experiment: Human tumor cell line growth assay (SRB); settings: Homo sapiens, Melanoma, 48 h
[11] = Human tumor cell line growth assay (SRB); settings: human, MALME-3M cells (melanoma), read-out: LC50
MALME-3M = experiment: Human tumor cell line growth assay (SRB); settings: Homo sapiens, Melanoma, 48 h
[12] = Human tumor cell line growth assay (SRB); settings: human, SK-MEL-2 cells (melanoma), SK-MEL-2, 48 h, read-out: LC50
SK-MEL-2 = experiment: Human tumor cell line growth assay (SRB); settings: Homo sapiens; Melanoma, SK-MEL-2, 48 h
[13] = Human tumor cell line growth assay (SRB); settings: human, UACC-257 cells (melanoma), UACC-257, 48 h, read-out: LC50
UACC-257 = experiment: Human tumor cell line growth assay (SRB); settings: Homo sapiens; Melanoma, UACC-257, 48 h
SK-OV-3 = experiment: Human tumor cell line growth assay (SRB); settings: Ovarian, SK-OV-3, 48 h; for CC50: read-out: LC50 (the source's name)
786-0 = experiment: Human tumor cell line growth assay (SRB); settings: Renal, 786-0, 48 h
CAKI-1 = experiment: Human tumor cell line growth assay (SRB); settings: Renal, CAKI-1, 48 h; for CC50: read-out: LC50 (the source's name)
RXF 393 = experiment: Human tumor cell line growth assay (SRB); settings: Renal, RXF 393, 48 h; for CC50: read-out: LC50 (the source's name)
TK-10 = experiment: Human tumor cell line growth assay (SRB); settings: Renal, TK-10, 48 h; for CC50: read-out: LC50 (the source's name)
PC-3 = experiment: Human tumor cell line growth assay (SRB); settings: Prostate, PC-3, 48 h; for CC50: read-out: LC50 (the source's name)
MDA-MB-231/ATCC = experiment: Human tumor cell line growth assay (SRB); settings: Breast, 48 h; for CC50: read-out: LC50 (the source's name)
HS 578T = experiment: Human tumor cell line growth assay (SRB); settings: Breast, 48 h; for CC50: read-out: LC50 (the source's name)
[14] = Human tumor cell line growth assay (SRB); settings: human, SR cells (leukemia), read-out: LC50
SR = experiment: Human tumor cell line growth assay (SRB); settings: Homo sapiens, Leukemia, 48 h

In the case of `Cc1cc2nc3c4ccccc4n(CCN(C)C)c3nc2cc1C` [B220, 2-(2,3-dimethyl-6H-indolo [2,3-b]quinoxalin-6-yl)-N,N-dimethylethanamine, reference compound], the GI50 (CCRF-CEM) is reported as 1.99 µM, the CC50 (CCRF-CEM) is reported as over 100 µM and the GI50 (HL-60(TB)) is reported as 1.99 µM. It also gave a CC50 (HL-60(TB)) of over 100 µM, a CC50 at 48 h [1] of over 100 µM and a GI50 (A549/ATCC) of 1.28 µM. It also gave a CC50 at 48 h [2] of 83.9 µM, a GI50 (EKVX) of 2.23 µM and a CC50 at 48 h [3] of over 100 µM. For the same compound, the GI50 (HOP-62) was 1.11 µM, the CC50 at 48 h [4] was over 100 µM and the GI50 (NCI-H226) was 2.01 µM. For the same compound, the CC50 at 48 h [5] was 45.6 µM, the GI50 (NCI-H23) was 1.87 µM and the CC50 at 48 h [6] was 44.5 µM. The GI50 (HCT-116) was 0.488 µM, the LC50 (50% lethal concentration) at 48 h [7] was 35 µM and the GI50 (SW-620) was 0.54 µM. The CC50 at 48 h [8] was 68.6 µM, the GI50 (SNB-19) was 2.33 µM and the LC50 (concentration killing 50% of cells) at 48 h [9] was 80.2 µM. For the same compound, the GI50 (SNB-75) was 1.28 µM, the CC50 at 48 h [10] was 18.9 µM and the GI50 (LOX IMVI) was 0.748 µM. It also gave a CC50 at 48 h [11] of 53.3 µM, a GI50 (MALME-3M) of 1.41 µM and a CC50 at 48 h [12] of 7.49 µM. For the same compound, the GI50 (SK-MEL-2) was 1.9 µM, the CC50 at 48 h [13] was 5.99 µM and the GI50 (UACC-257) was 1.94 µM. It also gave a GI50 (SK-OV-3) of 3.1 µM, a CC50 (SK-OV-3) of over 100 µM and a GI50 (786-0) of 1.97 µM. The LC50 (786-0) was 62 µM, the GI50 (CAKI-1) was 0.982 µM and the CC50 (CAKI-1) was over 100 µM. It also gave a GI50 (RXF 393) of 1.56 µM, a CC50 (RXF 393) of 12.2 µM and a GI50 (TK-10) of 2.97 µM. The CC50 (TK-10) was 71.4 µM, the GI50 (PC-3) was 2.01 µM and the CC50 (PC-3) was over 100 µM. For the same compound, the GI50 (MDA-MB-231/ATCC) was 1.76 µM, the CC50 (MDA-MB-231/ATCC) was 54.9 µM and the GI50 (HS 578T) was 1.57 µM. The CC50 (HS 578T) was 67.4 µM.

`COc1ccc2c(c1)c1nc3cc(C)c(C)cc3nc1n2CCN(C)C` [JBA-094, 2-(9-methoxy-2,3-dimethyl-6H-indolo[2,3-b]quinoxalin-6-yl)-N,N-dimethylethanamine] showed a GI50 (CCRF-CEM) of 0.795 µM, a CC50 (CCRF-CEM) of over 100 µM and a GI50 (HL-60(TB)) of 1.18 µM. For the same compound, the CC50 (HL-60(TB)) was over 100 µM, the CC50 at 48 h [14] was over 100 µM and the GI50 (SR) was 0.409 µM. For the same compound, the CC50 at 48 h [1] was 7.97 µM, the GI50 (A549/ATCC) was 0.482 µM and the CC50 at 48 h [2] was 6.8 µM. It also gave a GI50 (EKVX) of 1.28 µM, a CC50 at 48 h [3] of over 100 µM and a GI50 (HOP-62) of 1.19 µM. It also gave a CC50 at 48 h [4] of 8.2 µM, a GI50 (NCI-H226) of 1.24 µM and a CC50 at 48 h [5] of 8.2 µM. For the same compound, the GI50 (NCI-H23) was 0.973 µM, the CC50 at 48 h [6] was 6.59 µM and the GI50 (HCT-116) was 0.312 µM. The LC50 (50% lethal concentration) at 48 h [7] was 5.53 µM, the GI50 (SW-620) was 0.454 µM and the CC50 at 48 h [8] was 6.34 µM. It also gave a GI50 (SNB-19) of 0.719 µM, an LC50 (concentration killing 50% of cells) at 48 h [9] of 23.8 µM and a GI50 (SNB-75) of 1.23 µM. For the same compound, the CC50 at 48 h [10] was 6.07 µM, the GI50 (LOX IMVI) was 0.336 µM and the CC50 at 48 h [11] was 5.77 µM. It also gave a GI50 (MALME-3M) of 1.11 µM, a CC50 at 48 h [12] of 7.87 µM and a GI50 (SK-MEL-2) of 1.71 µM. It also gave a CC50 at 48 h [13] of 7.97 µM, a GI50 (UACC-257) of 1.5 µM and a GI50 (SK-OV-3) of 1.5 µM. It also gave a CC50 (SK-OV-3) of 7.17 µM, a GI50 (786-0) of 1.04 µM and an LC50 (786-0) of 6.52 µM. The GI50 (CAKI-1) was 0.541 µM, the CC50 (CAKI-1) was 4.93 µM and the GI50 (RXF 393) was 1.18 µM. For the same compound, the CC50 (RXF 393) was 6.9 µM, the GI50 (TK-10) was 1.96 µM and the CC50 (TK-10) was 6.92 µM. The GI50 (PC-3) was 1.12 µM, the CC50 (PC-3) was 5.84 µM and the GI50 (MDA-MB-231/ATCC) was 1.14 µM. The CC50 (MDA-MB-231/ATCC) was 6.39 µM, the GI50 (HS 578T) was 1.93 µM and the CC50 (HS 578T) was 78.7 µM.
